Source: US9416173B2, “Peptide and conjugate vaccines for fungal infections” (priority 2011, dated 2016)

Legend:
[1] = system: synthetic peptides; assay: ELISA antibody responses to peptide-pulsed DC vaccines; type: in vivo, BALB/c mice; settings: general fungal peptides, peptide-pulsed DC + CFA
Experimental: The murine dendritic cells (DCs) were pulsed in vitro with peptide candidate vaccine antigens as previously described (53). Briefly, DCs in culture were pulsed with the peptide antigen (1 μM) on day 6. On day 7, PGE2 (10^-7M) was added along with LPS (2 μg/ml, Sigma-Aldrich) for 24 h. On day 9, antigen-pulsed DCs were washed extensively and 5×10^5 in 200 μl DPBS were given intraperitoneally (i.p.) as the priming dose to mice. The mice were boosted i.p. at day 14 with fresh antigen-pulsed DCs and boosted a second time at day 28 with antigen (10 μg) emulsified in complete Freund adjuvant (CFA) given subcutaneously (s.c.).
Sera were ELISA analyzed for antibody titers. For DC-based immunization, control groups consisted of mice given DCs alone at the time of priming and first booster followed by CFA alone at the time of the second booster, or DPBS alone for all three injections. For Fba peptides administered with alum or MPL, control groups were mice given adjuvant alone or DPBS buffer. […] Synthetic Fba-MAP (GenScript) was dissolved at 5 μg/ml in PBS (pH 7.4) and used to coat 96-well ELISA plates for testing duplicate serial 2-fold dilutions of samples of each immune serum and control sera. Color development for each well was achieved by use of secondary antibody (goat anti-mouse polyvalent Ig-HRP) and substrate (O-phenylenediamine and H2O2) and OD determined at 492 nm.
FIGS. 1A-1C show the antibody responses in BALB/c mice against peptide-pulsed DC vaccines. Sera from mice immunized with the six synthetic peptide carriers presented on dendritic cells (DCs) for the priming and first booster immunizations and emulsified in complete Freund adjuvant (CFA) for the second booster were tested by ELISA for antibody responses against the peptides. Control groups consisted of mice given the same regimen for priming and boosters except that the peptides were omitted (DCs+CFA) or DPBS only was used at each injection time. […] The bars of each panel indicate means of CFUs per kidney pair for each group. The lowest limit of detection for the CFU assay is 50 CFU per kidney pair.
Sera were ELISA analyzed for antibody titers. Control groups consisted of mice given DCs alone at the time of priming and first booster followed by DPBS at the time of the second booster, DPBS for the priming and first booster and CFA alone at the time of the second booster, DPBS alone for all three injections, or DCs alone for priming and first booster followed by CFA alone at the time of the second booster. Briefly, synthetic peptides were dissolved at 10 μg/ml in PBS (pH 7.4). […] Color development for each well was achieved by secondary antibody (goat anti-mouse polyvalent immunoglobulin-HRP, Sigma) and substrate (O-phenylenediamine and H2O2) and Optical Density (OD) determined at 492 nm.

[2] = system: C. albicans strain 3153A; assay: Fungal challenge and assessment of protection (disseminated candidiasis), peptide vaccines; type: in vivo, BALB/c mice; settings: for survival rate: general peptides, experiment terminated 80 days post challenge; for protection against disseminated candidiasis (survival) / viable fungal units (CFUs) in kidneys: peptide-pulsed DC vaccine; for protection against disseminated candidiasis (survival): vs DPBS or DCs+CFA controls; for viable fungal units (CFUs) in kidneys: vs controls, detection limit 50 CFU per kidney pair
Experimental: C. albicans 3153A and SC5314, C. krusei (ATCC 6258), C. glabrata (ATCC 2001) and Saccharomyces cerevisiae (ATCC 9463) were obtained from the American Type Culture Collection (ATCC; Manassas, Va.) and were grown as stationary-phase yeast cells in glucose-yeast extract-peptone broth at 37° C., washed and suspended to the appropriate cell concentration (5×10^6/ml) in Dulbecco's PBS (DPBS; Sigma-Aldrich, St. Louis, Mo.), and used to infect mice intravenously (i.v.) as previously described (25, 29). C. albicans strain 3153A was also used for serum antibody absorption, immunofluorescence staining and flow cytometric analysis. Unless otherwise indicated, C. albicans strain 3153A was used to challenge the mice in the examples below.
(§1) Two weeks after the second boost, immune and control mice were infected intravenously (i.v.) with a lethal dose of live C. albicans yeast cells (5×10^5 in 0.1 ml of DPBS) prepared as described above and as before (53). Passively immunized mice (below) also received the same challenge dose. Protection was evaluated by monitoring animal survival for 80-100 days. The mice were monitored 2-3 times daily for the development of a moribund state, defined as being listless, disinterested in food or water, and nonreactive to finger probing. At the time that a mouse was deemed moribund, it was sacrificed and their kidneys (for some experiments, brains) were homogenized in DPBS and plated onto a nutrient agar to determine colony forming units (CFUs). After 80-100 days, the experiments were terminated and all the survivors at that time were sacrificed and their kidneys were assessed for CFU as before. The lowest limit of detection for the CFU assay was 50 CFU per kidney pair.
Two weeks after the second boost, immune and control mice were infected i.v. with a lethal dose of live C. albicans yeast cells (5×10^5 in 0.1 ml of DPBS). Passively immunized mice also received the same challenge dose. Protection was evaluated by monitoring animal survival for up to 120 days and by quantifying the number of CFU (mean±SE) per kidney pairs. Median survival times (MST) were statistically evaluated by Kaplan-Meier (GraphPad Prism, version 4). In all analyses, there were five mice per group (n=5), and a two-tailed t test was used.

[3] = system: C. albicans; assay: Immunofluorescence and flow cytometric analysis of binding to fungal cell surface; type: cell-based; settings: live fungal cells reacted with immune serum of peptide-immunized mice
Experimental: Distribution of the Fba peptide epitope on yeast cells was determined by indirect immunofluorescence. […] The yeast cells were suspended in the antibody preparation and incubated while shaking by rotation at room temperature (RT, 22-24° C.) for 1-2 h. After incubation, the yeast cells were washed with DPBS three times, suspended in 200 μl of fluorescein-labeled goat anti-mouse IgM (u-chain specific; Sigma) (stock solution, 1 mg/ml; working solution, 20 μg/ml of DPBS) and incubated at RT as described above for 0.5 h. The yeast cells were washed with DPBS three times and suspended in 200 μl of DPBS. The cells were observed by confocal microscopy (LSM 510, Zeiss). The distribution of the Fba peptide epitope on the yeast cell surface was compared to that obtained with yeast cells fluorescently stained for detection of the MAb B6.1 epitope. […] For flow cytometric analysis, following the last incubation, cells were washed as described above and suspended in the 500 μl DPBS buffer. Flow cytometry was performed using a BD Biosciences FACSVantage SE equipped with an argon laser excitation at 488 nm. 10,000 cells in each sample were analyzed (CellQuest Pro software).
Distribution of the β-(Man)3 and Fba peptide epitopes on yeast cells was determined by use of immune serum for flow cytometric analysis and indirect immunofluorescence. One hundred microliters of immune serum (1:100 dilution in 1% BSA/DPBS) was added to a pellet of C. albicans yeast cells (5×10^6) that was prewashed with DPBS buffer three times. The yeast cells were suspended in the immune serum [from β-(Man)3-Fba-TT immunized mice] preparation and incubated while shaking by rotation at room temperature (RT, 22-24° C.) for 1-2 h. After incubation, the yeast cells were washed with DPBS three times, suspended in 200 μl of fluorescein-labeled goat anti-mouse IgM (μ-chain specific; Sigma) (stock solution, 1 mg/ml; working solution, 20 μg/ml of DPBS) and incubated at RT described above for 0.5 h. The yeast cells were washed with DPBS three times and suspended in 500 μl of DPBS. Flow cytometry was performed using a BD Biosciences FACSVantage SE equipped with an argon laser excitation at 488 nm. 10,000 cells in each sample were analyzed (CellQuest Pro software).
For immunofluorescence assays, the fungal cells were immunostained and washed as described above and suspended in the 200 μl DPBS buffer. The cells were observed by confocal microscopy (LSM 510, Zeiss). The distribution of the β-(Man)3 and Fba peptide epitopes on the yeast cell surface was compared to that obtained with yeast cells fluorescently stained for detection of the MAb B6.1 epitope.

[4] = system: anti-Fba antibodies in immune sera; assay: ELISA inhibition assay with modified Fba peptides as inhibitors; type: binding, mice; settings: compared with original Fba inhibition curve
Experimental: (§2) The specificity of MAb E2-9 for Fba peptide was determined by an inhibition ELISA as described previously (52, 53). Briefly, Fba-MAP was dissolved in DPBS (5 μg/ml), and the solution was used to coat 96-well ELISA plates (100 μl, overnight at 4° C.). The wells were washed five times with PBST (PBS containing Tween 20, 0.05% [vol/vol] and blocked with 1% bovine serum albumin-PBST. MAb E2-9 produced as described above, was serially diluted up to 10,000 for ELISA measurements. Unless otherwise stated, the serum was diluted 1:100 dilution in DPBS to determine the content of antibody by ELISA. MAb E2-9 was mixed with Fba peptide (inhibitor) (dissolved in PBST at a concentration between 0.1 μM and 1 mM), and the resulting solution of each concentration was added to the Fba-MAP coated microtiter wells (solid phase) in triplicate and incubated at 21 to 23° C. for 2 h. Unless otherwise stated, the concentration of test antigens used to coat the wells was about 5-10 μg/ml. The wells were washed three times with PBST, and goat anti-mouse heavy chain specific for IgM was HRP-conjugated (diluted 1:10,000 in PBST) (Sigma) and 100 μl was added to the corresponding wells and incubated for 1 h at 21 to 23° C. The wells were washed five times with PBST, followed by addition of 100 μl of substrate solution (25 ml of 0.05 M phosphate-citrate buffer [pH 5.0], 200 μl of an aqueous solution of O-phenylenediamine 50 mg/ml [Sigma], and 10 μl of 30% H2O2). Color was allowed to develop for 10 min, stopped by addition of […] of 2 M H2SO4, and read at 492 nm (microtiter plate reader, model 450; Bio-Rad, Richmond, Calif.). The percent inhibition was calculated relative to wells containing antibody without inhibitor.
The specificity of anti-Fba antibodies in immune sera was tested for the modified Fba peptides as determined by ELISA inhibition assay. Peptide 1, original Fba, which was used as an inhibitor, was included as a positive control. The inhibition curve of FIG. 17 serves to compare the curves with the other modified peptides 2-11. FIGS. 18A, 18B, 18C, and 18D show the results of ELISA inhibition assays for peptide 2, peptide 3, peptide 4 and peptide 5, respectively. Each methylated peptide was used as an inhibitor in the designated assay. […] The reaction is dose-dependent for each group, indicating anti-Fba antibodies in immune sera were specific for the modified peptides. […] The binding of peptide 11, which has two extra cysteines may indicate that the binding site of Fba with antibody is located at the carboxyl part of the peptide.

[5] = system: C. albicans strain SC5314; assay: Fungal challenge and assessment of protection, strain SC5314; type: in vivo, BALB/c mice; settings: Fba peptide by dendritic cell approach
Experimental: as §1
To test if vaccination with the Fba peptide pulsed DCs protects mice challenged with a different C. albicans strain, we challenged immunized mice with C. albicans strain SC5314 (ATCC), which is the most commonly used clinical isolate of C. albicans for research purposes. As a positive control, a second group of mice immunized at the same time were challenged with C. albicans strain 3153A.

[6] = system: Fba peptide; assay: ELISA antibody responses against the Fba peptide in C57BL/6 mice; type: in vivo; settings: DC-based immunization; 14 days after second booster
Experimental: By the same DC-based immunization approach used for the BALB/c mice as described above, C57BL/6 mice was tested with the Fba peptide was given alone or as a glycoconjugate compared to the control groups of mice injected with DPBS buffer, or DCs+CFA.
Fourteen days after the second booster, immune sera were tested by ELISA for antibody responses against the Fba peptide.

[7] = system: Fba peptide; assay: Rabbit antisera against the Fba peptide (titers); type: in vivo; settings: Fba conjugated to KLH; each of two rabbits; commercial source (Genscript); data not shown
From the text: To obtain enough antisera for passive transfer experiments, and to determine whether the Fba peptide is immunologically restricted in other animal species, we obtained rabbit antisera against the peptide from a commercial source (Genscript). Fba was conjugated to keyhole limpet hemocyanin (KLH) prior to the rabbit immunizations.

[8] = system: MAb E2-9; assay: Inhibition ELISA (MAb E2-9 on Fba-MAP coated wells, Fba peptide as inhibitor); type: binding; settings: soluble Fba peptide inhibiting MAb E2-9 reactivity with solid phase Fba-MAP
Experimental: as §2, with “The wells were washed three times with PBST, and goat anti-mouse heavy chain specific for IgM was HRP-conjugated (diluted 1:10,000 in PBST) (Sigma) and 100 μl was added to the corresponding wells and incubated for 1 h at 21 to 23° C. The wells were washed five times with PBST, followed by addition of 100 μl of substrate solution (25 ml of 0.05 M phosphate-citrate buffer [pH 5.0], 200 μl of an aqueous solution of O-phenylenediamine 50 mg/ml [Sigma], and 10 μl of 30% H2O2).” left out

[9] = system: Fba peptide; parameters: species or system BALB/c mice; settings: mouse, in vivo

Sequence | effect on peptide-antibody binding (ELISA inhibition, peptide as inhibitor) [4] | protection against disseminated candidiasis (survival) [2] | viable fungal units (CFUs) in kidneys [2] | other results
SSSTVVAAL [Fba4] | – | – | – | antibody responses (ELISA, plates coated with the peptide) [1]: able to induce antibody responses; survival rate ([2]; DC immunization): 60%; binding of antibody in the immune serum to the peptides expressed on C. albicans cell surface (flow cytometric analysis) [3]: expressed on the fungal surface and are accessible to antibodies in immune sera
YGKDVKDLFDYAQE (methylated at position 3) [Pep4] | little effect on peptide-antibody binding | – | – | –
QGETEEALIQKRSY [Hwp1] | – | a high degree of protection | low or even non-detectable | –
YGKDVKDLFDYAQE (methylated at positions 1 and 8) [Pep10] | bound well to antibody | – | – | –
FAIPAINVTSSSTV [Fba2] | – | – | – | antibody responses (ELISA, plates coated with the peptide) [1]: good and specific antibody responses; protection (survival) vs DC+CFA control ([2]; general peptides experiment, DC immunization): failed to induce good protection
YGKDVKDLFDYAQE (methylated at position 2) [Pep3] | little effect on peptide-antibody binding | – | – | –
YDQVLDLSLLFNAIP [Met6-2] | – | – | – | antibody responses (ELISA, plates coated with the peptide) [1]: able to induce antibody responses; survival rate ([2]; DC immunization): 80%; binding of antibody in the immune serum to the peptides expressed on C. albicans cell surface (flow cytometric analysis) [3]: expressed on the fungal surface and are accessible to antibodies in immune sera
YGKDVKDLFDYAQE (methylated at position 1) [Pep2] | little effect on peptide-antibody binding | – | – | –
YGKDVKDLFDYAQE (methylated at position 5) [Pep5] | little effect on peptide-antibody binding | – | – | –
YGKDCVKCDLFDYAQE (cysteine added at positions 5 and 8) (cysteines added at positions 5 and 8) [Pep 11] | bound well to antibody | – | – | –
PRIGGQRELKKITE [Met6] | – | a high degree of protection | low or even non-detectable | –
FAIPAINVTSSSTVVAALE [Fba3] | – | – | – | antibody responses (ELISA, plates coated with the peptide) [1]: able to induce antibody responses; survival rate ([2]; DC immunization): 80%; binding of antibody in the immune serum to the peptides expressed on C. albicans cell surface (flow cytometric analysis) [3]: expressed on the fungal surface and are accessible to antibodies in immune sera
VPLDGKTITNNQRI [Pgk1] | – | some protection | low or non-detectable CFUs | –
YGKDVKDLFDYAQE [Fba] | – | a high degree of protection | low or even non-detectable | survival time ([5]; vs DCs+CFA or DPBS (P<0.01)): significant prolonged survival time; CFUs in kidneys ([5]; vs controls (P<0.01)): greatly reduced or non-detectable CFUs; antibody responses against the Fba peptide (ELISA, Fba-MAP coated plates) [6]: strong antibody responses; Titers of anti-Fba peptide immune sera [7]: 512,000; concentration of inhibitor (Fba peptide) required to achieve 50% inhibitory concentration [8]: about 10 μg/ml; binding of antibody in the immune serum to the peptides expressed on C. albicans cell surface (flow cytometric analysis) [3]: expressed on the fungal surface and are accessible to antibodies in immune sera; anti-Fba IgM and IgG antibodies in sera [9]: very low levels of anti-Fba IgM and IgG antibodies
NRSPSTGEQKSSGI [Gap1] | – | neither of two other peptides Gap1, or Eno1 induced protection | slightly less fungal burden | –
DSRGNPTVEVDFTT [Eno1] | – | neither of two other peptides Gap1, or Eno1 induced protection | slightly less fungal burden | –
